Test results: ChEMBL document CHEMBL5465560, “Selectivity Literature for EUbOPEN Chemogenomic Library” (2024)

Legend:
[1] = tested on: Epidermal growth factor receptor (Homo sapiens), P00533 [UNDEFINED MUTATION]; conditions: at 10 µM
[2] = biological target: T1, Serine/threonine-protein kinase TAO2 (Homo sapiens) (UniProt Q9UL54); conditions: at 10 µM
T1 sequence (whole entry): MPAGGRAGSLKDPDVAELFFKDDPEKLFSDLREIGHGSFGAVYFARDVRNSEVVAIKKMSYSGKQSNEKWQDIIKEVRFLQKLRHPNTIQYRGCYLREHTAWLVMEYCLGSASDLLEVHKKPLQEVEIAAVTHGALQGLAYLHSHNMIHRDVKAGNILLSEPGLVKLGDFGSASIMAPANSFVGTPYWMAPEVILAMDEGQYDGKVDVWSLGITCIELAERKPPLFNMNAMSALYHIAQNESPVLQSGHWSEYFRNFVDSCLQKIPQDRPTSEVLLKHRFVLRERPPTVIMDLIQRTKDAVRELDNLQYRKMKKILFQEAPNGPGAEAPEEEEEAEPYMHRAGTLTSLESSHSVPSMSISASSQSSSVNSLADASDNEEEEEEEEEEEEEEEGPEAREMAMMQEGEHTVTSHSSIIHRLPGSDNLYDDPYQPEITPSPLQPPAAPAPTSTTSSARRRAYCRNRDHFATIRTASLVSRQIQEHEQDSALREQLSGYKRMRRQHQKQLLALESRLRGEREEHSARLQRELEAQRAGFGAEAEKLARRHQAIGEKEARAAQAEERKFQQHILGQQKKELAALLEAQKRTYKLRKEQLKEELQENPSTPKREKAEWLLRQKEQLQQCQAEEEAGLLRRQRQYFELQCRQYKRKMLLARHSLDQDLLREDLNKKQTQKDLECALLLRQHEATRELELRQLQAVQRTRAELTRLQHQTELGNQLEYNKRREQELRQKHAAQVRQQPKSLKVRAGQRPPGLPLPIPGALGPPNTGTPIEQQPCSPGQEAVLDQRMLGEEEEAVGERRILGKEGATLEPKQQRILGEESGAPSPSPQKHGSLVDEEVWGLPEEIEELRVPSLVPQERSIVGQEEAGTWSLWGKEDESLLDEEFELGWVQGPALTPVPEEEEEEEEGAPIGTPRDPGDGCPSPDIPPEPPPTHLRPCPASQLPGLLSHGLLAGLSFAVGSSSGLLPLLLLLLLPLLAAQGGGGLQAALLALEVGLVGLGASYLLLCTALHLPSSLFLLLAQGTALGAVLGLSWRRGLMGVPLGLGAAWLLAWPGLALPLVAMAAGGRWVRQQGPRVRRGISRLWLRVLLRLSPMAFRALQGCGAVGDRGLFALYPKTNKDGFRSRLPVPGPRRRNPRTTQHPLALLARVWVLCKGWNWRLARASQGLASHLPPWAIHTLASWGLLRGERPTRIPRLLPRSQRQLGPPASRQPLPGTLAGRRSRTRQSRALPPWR

[3] = biological target: Insulin receptor-related protein (Homo sapiens) (UniProt P14616); test: Selectivity interaction (Ambit KINOMEscan and KiNATiv profiling in Jurkat cells) EUB0000090b INSRR; format: cell-based; conditions: at 1 µM
[4] = biological target: Serine/threonine-protein kinase PLK1 (Homo sapiens, UniProt P53350); test: Selectivity interaction (Ambit KINOMEscan and KiNATiv profiling in Jurkat cells) EUB0000090b PLK1; format: cell-based; conditions: at 1 µM
[5] = biological target: Serine/threonine-protein kinase MRCK gamma (Homo sapiens) (UniProt Q6DT37); test: Selectivity interaction (Kinase panel (Z-LYTE Assay)) EUB0001632a CDC42BPG; conditions: at 10 µM
[6] = biological target: T2, Serine/threonine-protein kinase Sgk3 (Homo sapiens) (UniProt Q96BR1); test: Selectivity interaction (KinomeScan (DiscoverX)) EUB0000229b SGK3; conditions: at 10 µM
T2 sequence (whole entry): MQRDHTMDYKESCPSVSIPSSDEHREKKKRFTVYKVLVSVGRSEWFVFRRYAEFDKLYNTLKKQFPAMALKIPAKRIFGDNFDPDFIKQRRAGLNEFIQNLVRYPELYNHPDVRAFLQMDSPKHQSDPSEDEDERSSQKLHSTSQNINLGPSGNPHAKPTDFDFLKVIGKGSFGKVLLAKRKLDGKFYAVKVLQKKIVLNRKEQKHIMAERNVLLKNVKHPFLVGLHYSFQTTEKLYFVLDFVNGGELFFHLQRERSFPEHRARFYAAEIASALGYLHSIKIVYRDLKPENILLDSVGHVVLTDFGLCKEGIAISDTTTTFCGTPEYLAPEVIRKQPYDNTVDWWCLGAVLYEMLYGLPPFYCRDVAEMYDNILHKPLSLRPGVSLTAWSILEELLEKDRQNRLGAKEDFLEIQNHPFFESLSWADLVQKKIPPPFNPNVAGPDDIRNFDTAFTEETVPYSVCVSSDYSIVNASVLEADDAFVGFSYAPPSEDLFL

[7] = biological target: Dual specificity protein kinase CLK1 (Homo sapiens, UniProt P49759); test: Selectivity interaction (KinomeScan (DiscoverX)) EUB0000229b CLK1; conditions: at 10 µM
[8] = biological target: Casein kinase I isoform gamma-1 (Homo sapiens) (UniProt Q9HCP0); test: Selectivity interaction (Upstate Kinase Profiler service (Millipore)) EUB0000056c CSNK1G1; conditions: at 1 µM
[9] = tested on: Tyrosine-protein kinase ABL1 (Homo sapiens), P00519 [T315I]; test: Selectivity interaction (KinomeScan (DiscoverX)) EUB0000655a ABL1; conditions: at 10 µM
[10] = biological target: T3, Myosin light chain kinase family member 4 (Homo sapiens) (UniProt Q86YV6); test: Selectivity interaction (KinomeScan (DiscoverX)) EUB0000655a MYLK4; conditions: at 10 µM
T3 sequence (whole entry): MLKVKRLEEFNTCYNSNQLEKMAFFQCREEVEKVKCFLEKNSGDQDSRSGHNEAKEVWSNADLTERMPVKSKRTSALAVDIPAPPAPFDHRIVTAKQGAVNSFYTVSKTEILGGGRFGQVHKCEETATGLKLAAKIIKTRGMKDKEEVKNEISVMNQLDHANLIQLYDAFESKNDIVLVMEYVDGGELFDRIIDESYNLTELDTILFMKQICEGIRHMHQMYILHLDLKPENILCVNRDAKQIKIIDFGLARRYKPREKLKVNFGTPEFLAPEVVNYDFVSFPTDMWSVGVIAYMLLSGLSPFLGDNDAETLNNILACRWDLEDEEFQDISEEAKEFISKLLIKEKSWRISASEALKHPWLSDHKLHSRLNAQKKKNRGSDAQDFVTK

[11] = biological target: Protein-tyrosine kinase 6 (Homo sapiens, UniProt Q13882); test: Selectivity interaction (KinomeScan (DiscoverX)) EUB0001619a PTK6; conditions: at 1 µM
SRSF protein kinase 1 = SRSF protein kinase 1 (Homo sapiens, UniProt Q96SB4); test: Selectivity interaction (Kinase panel (KiNativ target engagement assay in Jurkat cells)) EUB0001635a SRPK1; format: cell-based; conditions: Selectivity number of off-targets 0.0, Selectivity number of targets 233.0, Source Knowledge https://www.sciencedirect.com/science/article/pii/S2451945619300674?via%3Dihub, at 1 µM

Casein kinase I isoform gamma-1 (Homo sapiens), sequence (Q9HCP0 whole entry, looked up, canonical isoform): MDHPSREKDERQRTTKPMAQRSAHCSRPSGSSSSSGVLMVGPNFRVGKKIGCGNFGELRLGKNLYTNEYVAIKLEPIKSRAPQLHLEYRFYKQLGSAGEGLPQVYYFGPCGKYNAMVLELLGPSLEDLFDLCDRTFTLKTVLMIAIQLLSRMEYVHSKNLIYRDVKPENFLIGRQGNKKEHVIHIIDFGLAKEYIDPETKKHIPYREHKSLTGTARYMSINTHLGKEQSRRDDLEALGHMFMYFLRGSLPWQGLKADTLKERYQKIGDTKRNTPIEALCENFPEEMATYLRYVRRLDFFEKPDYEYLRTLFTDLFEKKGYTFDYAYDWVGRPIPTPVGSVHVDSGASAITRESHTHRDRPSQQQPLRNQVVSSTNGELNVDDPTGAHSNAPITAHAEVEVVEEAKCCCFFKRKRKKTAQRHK
Serine/threonine-protein kinase PLK1, sequence (P53350 whole entry): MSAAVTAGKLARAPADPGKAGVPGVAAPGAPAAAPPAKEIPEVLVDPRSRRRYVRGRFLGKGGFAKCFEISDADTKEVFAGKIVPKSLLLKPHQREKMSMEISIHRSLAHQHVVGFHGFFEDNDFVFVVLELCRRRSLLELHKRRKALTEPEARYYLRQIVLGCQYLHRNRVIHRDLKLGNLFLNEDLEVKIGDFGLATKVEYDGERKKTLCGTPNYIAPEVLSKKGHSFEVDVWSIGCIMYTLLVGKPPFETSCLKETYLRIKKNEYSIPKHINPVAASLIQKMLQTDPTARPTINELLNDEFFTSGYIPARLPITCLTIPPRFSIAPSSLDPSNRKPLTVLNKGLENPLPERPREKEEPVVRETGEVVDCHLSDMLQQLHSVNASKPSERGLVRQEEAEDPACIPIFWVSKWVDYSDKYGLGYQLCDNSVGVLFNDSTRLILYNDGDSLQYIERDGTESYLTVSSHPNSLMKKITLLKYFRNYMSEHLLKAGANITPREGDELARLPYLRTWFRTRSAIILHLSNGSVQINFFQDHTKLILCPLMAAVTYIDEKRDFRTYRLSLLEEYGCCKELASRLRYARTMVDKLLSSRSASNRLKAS
Epidermal growth factor receptor (Homo sapiens), P00533 [UNDEFINED MUTATION], sequence (P00533 whole entry, looked up, change not shown): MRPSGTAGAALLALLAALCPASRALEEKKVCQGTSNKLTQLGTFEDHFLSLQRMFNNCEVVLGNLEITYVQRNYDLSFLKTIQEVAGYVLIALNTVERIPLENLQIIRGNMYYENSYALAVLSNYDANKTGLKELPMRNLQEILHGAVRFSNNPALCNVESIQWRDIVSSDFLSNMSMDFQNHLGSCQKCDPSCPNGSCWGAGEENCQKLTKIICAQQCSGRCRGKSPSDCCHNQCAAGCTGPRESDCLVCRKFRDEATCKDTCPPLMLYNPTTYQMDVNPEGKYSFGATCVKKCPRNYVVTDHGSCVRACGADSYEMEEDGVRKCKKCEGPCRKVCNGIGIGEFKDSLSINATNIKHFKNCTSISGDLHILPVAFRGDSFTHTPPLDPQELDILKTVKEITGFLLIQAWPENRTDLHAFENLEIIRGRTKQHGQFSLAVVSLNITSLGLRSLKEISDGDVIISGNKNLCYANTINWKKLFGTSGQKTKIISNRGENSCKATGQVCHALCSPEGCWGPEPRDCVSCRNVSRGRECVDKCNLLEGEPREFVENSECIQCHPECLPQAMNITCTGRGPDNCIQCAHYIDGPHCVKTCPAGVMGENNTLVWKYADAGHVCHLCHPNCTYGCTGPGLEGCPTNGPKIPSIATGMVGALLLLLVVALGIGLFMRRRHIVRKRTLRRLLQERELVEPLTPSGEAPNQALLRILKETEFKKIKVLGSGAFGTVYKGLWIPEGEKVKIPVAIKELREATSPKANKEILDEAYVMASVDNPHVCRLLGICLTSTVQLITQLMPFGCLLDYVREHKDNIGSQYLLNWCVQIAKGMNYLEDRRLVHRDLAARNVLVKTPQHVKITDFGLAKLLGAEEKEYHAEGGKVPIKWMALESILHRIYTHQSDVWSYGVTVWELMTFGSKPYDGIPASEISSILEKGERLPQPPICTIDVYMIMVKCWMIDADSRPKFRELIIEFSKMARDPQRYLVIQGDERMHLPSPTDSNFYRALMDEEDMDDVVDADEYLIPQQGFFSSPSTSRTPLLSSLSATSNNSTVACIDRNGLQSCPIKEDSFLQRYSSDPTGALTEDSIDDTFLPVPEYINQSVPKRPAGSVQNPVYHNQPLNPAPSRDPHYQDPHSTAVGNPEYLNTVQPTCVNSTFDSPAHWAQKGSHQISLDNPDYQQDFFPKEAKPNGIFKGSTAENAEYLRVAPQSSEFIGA
Insulin receptor-related protein (Homo sapiens), sequence (P14616 27-742 limits assumed): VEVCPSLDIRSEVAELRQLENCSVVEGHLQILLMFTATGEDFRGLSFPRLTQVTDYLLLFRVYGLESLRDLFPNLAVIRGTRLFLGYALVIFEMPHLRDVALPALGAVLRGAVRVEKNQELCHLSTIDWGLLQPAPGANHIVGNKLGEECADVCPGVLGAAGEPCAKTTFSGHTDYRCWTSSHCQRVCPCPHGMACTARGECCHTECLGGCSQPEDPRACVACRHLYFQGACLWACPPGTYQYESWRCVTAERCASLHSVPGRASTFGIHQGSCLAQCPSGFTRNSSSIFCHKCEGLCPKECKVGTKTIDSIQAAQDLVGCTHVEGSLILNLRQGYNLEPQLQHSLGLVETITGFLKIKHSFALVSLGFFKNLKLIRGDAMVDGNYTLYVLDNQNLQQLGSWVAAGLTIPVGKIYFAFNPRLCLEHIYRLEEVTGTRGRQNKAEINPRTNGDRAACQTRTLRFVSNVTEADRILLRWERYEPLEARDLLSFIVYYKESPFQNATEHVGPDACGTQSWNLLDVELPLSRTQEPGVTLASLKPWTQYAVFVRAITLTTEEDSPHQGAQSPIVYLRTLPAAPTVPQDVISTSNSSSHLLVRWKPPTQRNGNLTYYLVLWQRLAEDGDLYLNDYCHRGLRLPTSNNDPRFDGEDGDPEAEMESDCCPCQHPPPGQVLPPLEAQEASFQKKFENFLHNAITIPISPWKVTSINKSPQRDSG
Insulin receptor-related protein (Homo sapiens), sequence (P14616 747-1297 limits assumed): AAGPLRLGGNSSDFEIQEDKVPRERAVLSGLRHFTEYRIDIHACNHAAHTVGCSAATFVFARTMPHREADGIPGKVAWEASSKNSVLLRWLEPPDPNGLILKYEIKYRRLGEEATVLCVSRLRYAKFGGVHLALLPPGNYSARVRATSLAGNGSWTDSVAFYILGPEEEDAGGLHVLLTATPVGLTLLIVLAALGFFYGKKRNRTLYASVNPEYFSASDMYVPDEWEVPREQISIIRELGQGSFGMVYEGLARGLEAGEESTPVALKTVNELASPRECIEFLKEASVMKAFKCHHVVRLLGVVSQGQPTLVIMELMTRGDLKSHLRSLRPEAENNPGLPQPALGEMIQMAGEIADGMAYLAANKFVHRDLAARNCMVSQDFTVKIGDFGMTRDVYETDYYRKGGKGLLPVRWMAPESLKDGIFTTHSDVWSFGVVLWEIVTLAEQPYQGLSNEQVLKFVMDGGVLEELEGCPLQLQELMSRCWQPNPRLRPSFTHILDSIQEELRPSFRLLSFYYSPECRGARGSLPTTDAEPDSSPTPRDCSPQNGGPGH
Serine/threonine-protein kinase MRCK gamma (Homo sapiens), sequence (Q6DT37 whole entry): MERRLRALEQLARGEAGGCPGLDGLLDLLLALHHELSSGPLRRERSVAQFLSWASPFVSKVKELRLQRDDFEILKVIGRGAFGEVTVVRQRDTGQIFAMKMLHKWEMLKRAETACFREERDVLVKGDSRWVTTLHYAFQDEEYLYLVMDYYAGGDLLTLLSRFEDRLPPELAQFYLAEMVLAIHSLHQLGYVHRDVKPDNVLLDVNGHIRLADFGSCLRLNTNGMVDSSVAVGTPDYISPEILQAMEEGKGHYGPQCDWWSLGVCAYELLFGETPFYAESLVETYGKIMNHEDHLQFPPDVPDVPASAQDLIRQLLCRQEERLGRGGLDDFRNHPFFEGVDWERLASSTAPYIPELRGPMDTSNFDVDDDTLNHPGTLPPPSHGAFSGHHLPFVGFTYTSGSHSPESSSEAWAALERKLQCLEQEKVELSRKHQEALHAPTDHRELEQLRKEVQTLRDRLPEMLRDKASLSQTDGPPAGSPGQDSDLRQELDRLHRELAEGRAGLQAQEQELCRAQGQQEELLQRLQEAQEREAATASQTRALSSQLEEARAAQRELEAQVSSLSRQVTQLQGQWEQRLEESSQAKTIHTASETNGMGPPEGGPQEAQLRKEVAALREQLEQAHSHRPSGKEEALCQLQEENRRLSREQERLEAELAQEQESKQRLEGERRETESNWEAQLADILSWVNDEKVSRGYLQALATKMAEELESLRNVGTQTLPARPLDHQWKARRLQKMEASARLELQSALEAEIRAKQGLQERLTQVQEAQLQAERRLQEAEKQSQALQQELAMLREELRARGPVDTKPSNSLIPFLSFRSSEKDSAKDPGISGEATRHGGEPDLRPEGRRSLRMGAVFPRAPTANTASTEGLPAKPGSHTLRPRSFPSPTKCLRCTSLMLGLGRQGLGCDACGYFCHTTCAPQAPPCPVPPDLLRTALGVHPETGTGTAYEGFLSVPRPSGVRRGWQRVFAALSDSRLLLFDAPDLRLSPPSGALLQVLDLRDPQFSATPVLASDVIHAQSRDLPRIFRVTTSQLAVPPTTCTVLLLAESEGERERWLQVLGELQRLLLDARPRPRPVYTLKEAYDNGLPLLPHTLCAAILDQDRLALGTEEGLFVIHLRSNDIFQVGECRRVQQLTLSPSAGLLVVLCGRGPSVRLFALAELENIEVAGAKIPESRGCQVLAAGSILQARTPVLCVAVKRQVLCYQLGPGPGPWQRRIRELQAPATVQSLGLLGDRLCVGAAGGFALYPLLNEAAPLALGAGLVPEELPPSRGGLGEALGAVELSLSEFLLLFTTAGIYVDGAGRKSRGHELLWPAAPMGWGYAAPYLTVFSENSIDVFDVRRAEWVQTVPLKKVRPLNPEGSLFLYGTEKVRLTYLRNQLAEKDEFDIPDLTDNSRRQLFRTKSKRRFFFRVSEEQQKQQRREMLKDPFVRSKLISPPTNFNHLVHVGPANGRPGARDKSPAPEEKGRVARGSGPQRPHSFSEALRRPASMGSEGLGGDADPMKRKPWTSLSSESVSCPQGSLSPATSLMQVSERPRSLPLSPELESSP

Cc1cc([C@@H](C)Nc2ccccc2C(=O)O)c2nc(N3CCOCC3)cc(=O)n2c1 [AZD-6482]
% of control [1]: 100%
% of control [2]: 94%

CN(C)C/C=C/C(=O)Nc1ccc(C(=O)N2CCCC(Nc3ncc(Cl)c(-c4c[nH]c5ccccc45)n3)C2)cc1 (configuration not stated)
% of control [3]: 100%
% of control [4]: 90%

Cn1cc(-n2cnc3c(NCc4nc5cc(Cl)c(Cl)cc5[nH]4)nc(N4CCOCC4)nc32)cn1
% of control [5]: 2.69%

COc1cc(N(C)c2ccnc3ccc(C(F)(F)F)cc23)cc(OC)c1OC
% binding [6]: 79%
% binding [7]: 84%

Cc1ccc(-c2ccc3c(ccc4sc5c(c43)NC[C@@H](C)NC5=O)n2)cn1
% of inhibition [8]: 23%

CN(C)CCOc1ccc(-c2nc(-c3ccncc3)c(-c3ccc4c(c3)CC/C4=N\O)[nH]2)cc1
% of control [9]: 5.4%
% of control [10]: 98%

N#Cc1cccc(-c2c[nH]c3ncnc(N4CCOCC4)c23)c1
% of control [11]: 72%

C=CC(=O)Nc1ccc(C(=O)Nc2[nH]nc3c2CN(C(=O)N[C@H](CN(C)C)c2ccccc2)C3(C)C)cc1
% of engagement (SRSF protein kinase 1): 6%
